Data published in patent publication US8536407B2, “Heat resistant plants and plant tissues comprising a variant adenosine diphosphate glucose pyrophosphorylase small subunit protein and methods of use thereof” (University of Florida Research Foundation, Inc., priority 2008, dated 2013).
Entries after “also recorded” stand apart in the source; their conditions may differ. Like-named read-outs stand apart in the source and are kept apart here.

Tests used:
[1] = molecular target: T1, maize endosperm ADP-glucose pyrophosphorylase (AGPase) variant BT2-TI/SH2, small subunit BT2 with Thr462 to Ile (TI, SEQ ID NO:2) complexed with wild type SH2 (Zea mays, UniProt P55241+Q947C0, T462I); assay: Kinetic and allosteric characterization of purified recombinant AGPase, forward direction (BT2-TI/SH2); format: biochemical
T1 sequence (Q947C0 1-475 T462I): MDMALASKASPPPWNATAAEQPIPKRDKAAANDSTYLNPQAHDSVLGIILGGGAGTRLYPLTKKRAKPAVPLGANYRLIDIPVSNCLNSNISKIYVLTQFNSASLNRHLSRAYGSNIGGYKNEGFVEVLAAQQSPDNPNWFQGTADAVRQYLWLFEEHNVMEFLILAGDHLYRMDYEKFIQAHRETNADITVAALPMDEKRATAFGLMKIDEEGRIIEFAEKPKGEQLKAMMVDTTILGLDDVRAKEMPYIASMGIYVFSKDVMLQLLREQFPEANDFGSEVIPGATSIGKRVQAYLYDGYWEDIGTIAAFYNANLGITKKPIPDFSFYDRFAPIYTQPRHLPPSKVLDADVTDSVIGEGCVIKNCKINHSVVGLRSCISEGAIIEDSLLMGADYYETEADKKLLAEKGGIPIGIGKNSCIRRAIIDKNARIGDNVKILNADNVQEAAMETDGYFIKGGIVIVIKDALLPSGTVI
T1 sequence (P55241 46-516): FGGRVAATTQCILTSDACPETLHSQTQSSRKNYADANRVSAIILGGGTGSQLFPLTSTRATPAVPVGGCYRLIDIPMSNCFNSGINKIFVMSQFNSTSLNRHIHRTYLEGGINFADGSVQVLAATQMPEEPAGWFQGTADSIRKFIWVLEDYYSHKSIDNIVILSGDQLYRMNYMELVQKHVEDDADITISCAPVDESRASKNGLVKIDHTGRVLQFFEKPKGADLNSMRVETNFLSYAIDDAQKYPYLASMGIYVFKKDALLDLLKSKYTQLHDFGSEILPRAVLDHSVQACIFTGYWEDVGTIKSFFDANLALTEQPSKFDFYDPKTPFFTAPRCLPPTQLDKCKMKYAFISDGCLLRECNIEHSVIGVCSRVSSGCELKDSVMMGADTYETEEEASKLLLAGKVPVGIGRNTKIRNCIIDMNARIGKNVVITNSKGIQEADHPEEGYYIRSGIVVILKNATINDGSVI
Experimental: (§1) The following steps were conducted at 4° C.
(§2) The reaction was stopped by boiling for 2 min. […] NADH concentration was estimated by absorbance at 340 nm.
A mutant Bt2 library was created by error-prone PCR. The mutational load was ˜2 non-synonymous mutations per clone (Georgelis et al. 2007). The mutants were expressed in E. coli along with a wildtype Sh2 gene. Approximately 50,000 colonies were screened for glycogen production. Ten dark staining colonies were picked. The two darkest staining Bt2 mutants were sequenced. Both had the same non-synonymous mutation resulting in a change of amino acid 462 from threonine to isoleucine (TI). The threonine in that position is absolutely conserved among the higher plant small subunits (data not shown).
Ki's are expressed as mean (95% confidence interval). All other values are expressed as mean±standard deviation.

[2] = tested on: ADP-glucose pyrophosphorylase (AGPase) MP/SH2, mosaic small subunit MP (first 200 amino acids of maize BT2 and last 275 amino acids of potato tuber small …); details: for Km: forward direction, pH 7.4, 37° C.
Experimental: AGPase was desalted by using Zeba Micro Desalt Spin Columns (Pierce) before assaying. AGPase was exchanged into 50 mM HEPES, 5 mM MgCl2, 0.5 mM EDTA and 0.5 mg/mL BSA (for stability).
The reaction was stopped by boiling for 2 min. PPi was estimated by coupling the reaction to a reduction in NADH concentration using 300 μl of coupling reagent. The coupling reagent contained 25 mM imidazole pH 7.4, 4 mM MgCl2, 1 mM EDTA, 0.2 mM NADH, 0.725U aldolase, 0.4U triose phosphate isomerase, 0.6U glycerophosphate dehydrogenase, 1 mM fructose 6-phosphate and 0.8 μg of pyrophosphate dependent phosphofructokinase (PPi-PFK). […] NADH concentration was estimated by absorbance at 340 nm. PPi concentration was calculated by a standard curve developed by using various amounts of PPi instead of AGPase. […] The kinetic constants of AGPase were calculated by Prism 4.0 (Graph Pad, San Diego Calif.).
All other values are expressed as mean±standard deviation. The specific activity of AGPase in the absence of 3-PGA is expressed as a percentage of the specific activity in the presence of 10 mM of 3-PGA (mean±standard error).

[3] = molecular target: T2, maize endosperm ADP-glucose pyrophosphorylase (AGPase) BT2/SH2, wild type small subunit BT2 complexed with wild type large subunit SH2 (Zea mays, UniProt P55241+Q947C0); assay: Kinetic and allosteric characterization of purified recombinant AGPase, forward direction (BT2/SH2); format: biochemical
T2 sequence (Q947C0 1-475): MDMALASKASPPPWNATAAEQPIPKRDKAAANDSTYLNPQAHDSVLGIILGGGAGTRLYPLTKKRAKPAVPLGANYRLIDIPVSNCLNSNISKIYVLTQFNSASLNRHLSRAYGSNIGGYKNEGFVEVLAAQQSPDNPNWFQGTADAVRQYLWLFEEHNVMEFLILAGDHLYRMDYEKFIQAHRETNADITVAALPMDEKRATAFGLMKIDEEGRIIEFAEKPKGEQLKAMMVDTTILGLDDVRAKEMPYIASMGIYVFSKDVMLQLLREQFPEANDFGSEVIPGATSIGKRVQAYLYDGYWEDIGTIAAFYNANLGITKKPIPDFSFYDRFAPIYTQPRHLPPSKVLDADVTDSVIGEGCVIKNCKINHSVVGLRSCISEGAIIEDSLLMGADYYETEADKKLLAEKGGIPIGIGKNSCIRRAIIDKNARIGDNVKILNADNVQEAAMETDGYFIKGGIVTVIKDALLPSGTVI
T2 sequence (P55241 46-516): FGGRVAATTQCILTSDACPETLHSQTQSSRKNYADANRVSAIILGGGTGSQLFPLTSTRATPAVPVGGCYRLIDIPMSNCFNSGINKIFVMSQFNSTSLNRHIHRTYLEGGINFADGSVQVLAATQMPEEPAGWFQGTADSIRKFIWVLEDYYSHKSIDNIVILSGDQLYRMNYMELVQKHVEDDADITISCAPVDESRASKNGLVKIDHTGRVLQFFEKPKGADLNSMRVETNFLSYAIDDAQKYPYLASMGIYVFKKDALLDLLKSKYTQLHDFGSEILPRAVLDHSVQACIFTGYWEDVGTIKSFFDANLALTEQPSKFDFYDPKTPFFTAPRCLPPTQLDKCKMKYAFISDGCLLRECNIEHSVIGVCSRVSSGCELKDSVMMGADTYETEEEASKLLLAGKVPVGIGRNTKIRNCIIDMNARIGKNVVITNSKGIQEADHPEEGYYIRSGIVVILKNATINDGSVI
Experimental: as §1, §2
(§3) All other values are expressed as mean±standard deviation.

[4] = tested on: ADP-glucose pyrophosphorylase (AGPase) variant MP-TI/SH2, maize/potato mosaic small subunit MP with the TI mutation (threonine to isoleucine at position …); assay: Kinetic and allosteric characterization of purified recombinant AGPase, forward direction (MP-TI/SH2); format: biochemical, maize (Zea mays) / potato tuber
Experimental: as §1, §2, §3

[5] = tested on: ADP-glucose pyrophosphorylase (AGPase) MP/SH2, mosaic small subunit MP (first 200 amino acids of maize BT2 and last 275 amino acids of potato tuber small …); details: MP/SH2 compared to wildtype BT2/SH2; Cross et al., 2004; Boehlein et al., 2005; cited from earlier work
[6] = specific activity in absence of 3-PGA as percentage of that with 10 mM 3-PGA, mean±standard error
[7] = varying ATP, G-1-P saturating (2 mM), mean±standard deviation

SMILES	Ka for 3-PGA (compared with BT2/SH2, in words) ([1]; BT2-TI/SH2 versus BT2/SH2)	Vmax − 3-PGA/Vmax + 3-PGA ([2]; MP/SH2, specific activity in absence of 3-PGA as percentage of that with 10 mM 3-PGA, mean±standard error)	affinity for 3-PGA (in words) ([2]; MP/SH2 compared to BT2/SH2)	Vmax − 3-PGA/Vmax + 3-PGA [3, 6]	Vmax − 3-PGA/Vmax + 3-PGA [4, 6]	affinity for 3-PGA (in words) [5]	kcat (ATP) ([1]; BT2-TI/SH2, varying ATP, G-1-P saturating (2 mM), mean±standard deviation) [s⁻¹]	Km (compared with BT2/SH2, in words) ([1]; BT2-TI/SH2 versus BT2/SH2)	Km ([1]; read-out: Km ATP, BT2-TI/SH2, forward direction, pH 7.4, 37° C., varying ATP, mean±standard deviation) [µM]	kcat (ATP) ([2]; MP/SH2, varying ATP, G-1-P saturating (2 mM), mean±standard deviation) [s⁻¹]	Km ([2]; read-out: Km ATP, MP/SH2, varying ATP, mean±standard deviation) [µM]	Km ([3]; read-out: Km ATP, forward direction, pH 7.4, 37° C., varying ATP, mean±standard deviation) [µM]	kcat (ATP) [3, 7] [s⁻¹]	Km ([4]; forward direction, pH 7.4, 37° C., varying ATP, mean±standard deviation, read-out: Km ATP) [µM]	kcat (ATP) [4, 7] [s⁻¹]	kcat (G-1-P) ([2]; MP/SH2, varying G-1-P, ATP saturating (1 mM), mean±standard deviation) [s⁻¹]	Km ([2]; read-out: Km G-1-P, MP/SH2, varying G-1-P, mean±standard deviation) [µM]	Km ([4]; read-out: Km G-1-P, forward direction, pH 7.4, 37° C., varying G-1-P, mean±standard deviation) [µM]	kcat (G-1-P) ([4]; varying G-1-P, ATP saturating (1 mM), mean±standard deviation) [s⁻¹]
O=C(O)[C@H](O)COP(=O)(O)O [3-PGA]	indistinguishable from BT2/SH2	(28.2 ± 3.1%)	increased affinity for 3-PGA; also recorded: a higher affinity for 3-PGA	(7.2 ± 3.2%)	(24.4 ± 5.3%)	increased affinity for 3-PGA													
Nc1ncnc2c1ncn2[C@@H]1O[C@H](COP(=O)(O)OP(=O)(O)OP(=O)(O)O)[C@@H](O)[C@H]1O [ATP]							29.112	indistinguishable from BT2/SH2	146	69.337	133	102	43.321	112	49.031				
O=P(O)(O)O[C@H]1O[C@H](CO)[C@@H](O)[C@H](O)[C@H]1O [G-1-P, glucose-1-P]								indistinguishable from BT2/SH2								62.655	79	59	42.880
